Where a name gives a salt, the structure may show the parent alone.
In the case of `C[Si](C)(C)c1ccc(-c2ccc(=O)n(Cc3ccccc3)c2)cc1`, the melting point is reported as 132 °C.
Compound `Cl.Nc1ccc(-c2ccc(=O)n(Cc3ccc(Cl)cc3F)c2)cc1` has a melting point of 266 °C.
Work on `COc1ccc(-c2ccc(=O)n(Cc3ccc(OC)nc3)c2)cc1` (as salt: HCl) [4-46] yielded a melting point of 126 °C.
Work on `Cc1ccc(-c2ccc(=O)n(Cc3ccccc3)c2)cc1` [1-03] yielded a melting point of 110 °C.
Compound `CCc1ccc(-c2ccc(=O)n(Cc3ccccc3)c2)cc1` [1-04] has a melting point of 80 °C.
With `CC(C)(C)c1ccc(-c2ccc(=O)n(Cc3ccccc3)c2)cc1` [1-05] the melting point was 145 °C.
Compound `Cc1ccc(-c2ccc(=O)n(Cc3ccccc3)c2)cc1C` [1-06] has a melting point of 118 °C.
For `O=c1ccc(-c2cc(F)cc(F)c2)cn1Cc1ccccc1` [1-09], the melting point was 98 °C.
In the case of `O=c1ccc(-c2cccc(Cl)c2)cn1Cc1ccccc1` [1-10], the melting point is reported as 120 °C.
`O=c1ccc(-c2ccc(Cl)c(Cl)c2)cn1Cc1ccccc1` [1-12] showed a melting point of 134 °C.
In the case of `O=c1ccc(-c2ccc(O)cc2)cn1Cc1ccccc1` [1-13], the melting point is reported as 202 °C.
For `CCCOc1ccc(-c2ccc(=O)n(Cc3ccccc3)c2)cc1` [1-17], the melting point was 88 °C.
In the case of `CC(C)COc1ccc(-c2ccc(=O)n(Cc3ccccc3)c2)cc1` [1-18], the melting point is reported as 110 °C.
`COc1ccc(-c2ccc(=O)n(Cc3ccccc3)c2)cc1OC` [1-19] showed a melting point of 120 °C.
`O=c1ccc(-c2ccc(OC(F)(F)F)cc2)cn1Cc1ccccc1` [1-20] gave a melting point of 115 °C.
`CC(=O)c1ccc(-c2ccc(=O)n(Cc3ccccc3)c2)cc1` [1-23] gave a melting point of 118 °C.
With `CCOC(=O)c1ccc(-c2ccc(=O)n(Cc3ccccc3)c2)cc1` [1-24] the melting point was 115 °C.
In the case of `N#Cc1ccc(-c2ccc(=O)n(Cc3ccccc3)c2)cc1` [1-25], the melting point is reported as 131 °C.
Work on `CN(C)c1ccc(-c2ccc(=O)n(Cc3ccccc3)c2)cc1` [1-26] yielded a melting point of 153 °C.
In the case of `O=c1ccc(-c2cccc([N+](=O)[O-])c2)cn1Cc1ccccc1` [1-27], the melting point is reported as 149 °C.
`COc1ccc(-c2ccc(=O)n(Cc3ccccc3)c2)cn1` [1-29] gave a melting point of 180 to 181 °C.
In the case of `O=c1ccc(-c2ccc3[nH]ccc3c2)cn1Cc1ccccc1` [1-30], the melting point is reported as 93 °C.
Compound `O=c1ccc(-c2ccc3ccccc3c2)cn1Cc1ccccc1` [1-32] has a melting point of 114 °C.
With `O=c1ccc(C2CCCCC2)cn1Cc1ccc(Cl)cc1` [2-01, 1-(4-Chlorobenzyl)-5-cyclohexylpyridin-2(1H)-one] the melting point was 72 °C.
With `Cc1ccc(-c2ccc(=O)n(Cc3ccc(Cl)cc3)c2)cc1` [2-03] the melting point was 126 to 128 °C.
`CC(C)Cc1ccc(-c2ccc(=O)n(Cc3ccc(Cl)cc3)c2)cc1` [2-04] gave a melting point of 115 °C.
`CCC(C)c1ccc(-c2ccc(=O)n(Cc3ccc(Cl)cc3)c2)cc1` (centres unmarked) [2-05] gave a melting point of 73 °C.
`C=Cc1ccc(-c2ccc(=O)n(Cc3ccc(Cl)cc3)c2)cc1` [2-06] showed a melting point of 125 °C.
For `Cc1ccc(-c2ccc(=O)n(Cc3ccc(Cl)cc3)c2)cc1F` [2-10], the melting point was 109 to 112 °C.
For `COc1ccc(-c2ccc(=O)n(Cc3ccc(Cl)cc3)c2)c(F)c1` [2-11], the melting point was 89 °C.
In the case of `O=c1ccc(-c2ccc(O)cc2)cn1Cc1ccc(Cl)cc1` [2-13], the melting point is reported as 202 °C.
`O=c1ccc(-c2ccc(CO)cc2)cn1Cc1ccc(Cl)cc1` [2-14] gave a melting point of 155 °C.
Compound `CC(C)(O)c1ccc(-c2ccc(=O)n(Cc3ccc(Cl)cc3)c2)cc1` [2-15, 1-(4-Chlorobenzyl)-5-(4-(2-hydroxypropan-2-yl)phenyl)pyridin-2(1H)-one] has a melting point of 157 °C.
Compound `O=c1ccc(-c2ccc(CCCO)cc2)cn1Cc1ccc(Cl)cc1` [2-16, 1-(4-Chlorobenzyl)-5-(4-(3-hydroxypropyl)phenyl)pyridin-2(1H)-one] has a melting point of 165 °C.
`CCOc1ccccc1-c1ccc(=O)n(Cc2ccc(Cl)cc2)c1` [2-20] gave a melting point of 120 to 121 °C.
`CC(C)Oc1ccc(-c2ccc(=O)n(Cc3ccc(Cl)cc3)c2)cc1` [2-21] gave a melting point of 118 °C.
Work on `COCc1ccc(-c2ccc(=O)n(Cc3ccc(Cl)cc3)c2)cc1` [2-24] yielded a melting point of 109 °C.
`CCOCc1ccc(-c2ccc(=O)n(Cc3ccc(Cl)cc3)c2)cc1` [2-25, 1-(4-Chlorobenzyl)-5-(4-(ethoxymethyl)phenyl)pyridin-2(1H)-one] showed a melting point of 109 °C.
Work on `CC(C)COCc1ccc(-c2ccc(=O)n(Cc3ccc(Cl)cc3)c2)cc1` [2-26] yielded a melting point of 91 °C.
In the case of `O=c1ccc(-c2ccc(COCc3ccccc3)cc2)cn1Cc1ccc(Cl)cc1` [2-27], the melting point is reported as 101 °C.
`COCCOCc1ccc(-c2ccc(=O)n(Cc3ccc(Cl)cc3)c2)cc1` [2-28] showed a melting point of 79 °C.
With `CC(=O)c1ccc(-c2ccc(=O)n(Cc3ccc(Cl)cc3)c2)cc1` [2-30] the melting point was 162 °C.
With `O=C(O)Cc1ccc(-c2ccc(=O)n(Cc3ccc(Cl)cc3)c2)cc1` [2-31] the melting point was 180 °C.
For `COC(=O)c1ccc(-c2ccc(=O)n(Cc3ccc(Cl)cc3)c2)cc1` [2-33], the melting point was 175 °C.
For `COC(=O)CCc1ccc(-c2ccc(=O)n(Cc3ccc(Cl)cc3)c2)cc1` [2-36], the melting point was 105 °C.
Compound `COc1ccc(-c2ccc(=O)n(Cc3ccc(Cl)cc3)c2)cc1N` [2-37] has a melting point of 175 °C.
`COCCNc1ccc(-c2ccc(=O)n(Cc3ccc(Cl)cc3)c2)cc1` [2-40] gave a melting point of 106 °C.
In the case of `O=c1ccc(-c2ccc(N3CCOCC3)cc2)cn1Cc1ccc(Cl)cc1` [2-41], the melting point is reported as 126 °C.
`CC(=O)NCCOCc1ccc(-c2ccc(=O)n(Cc3ccc(Cl)cc3)c2)cc1` [2-42, N-(2-(4-(1-(4-Chlorobenzyl)-6-oxo-1,6-dihydropyridin-3-yl)benzyloxy)ethyl)acetamide] showed a melting point of 152 °C.
`CN(C)C(=O)c1ccc(-c2ccc(=O)n(Cc3ccc(Cl)cc3)c2)cc1` [2-43] gave a melting point of 176 °C.
For `CNC(=O)Cc1ccc(-c2ccc(=O)n(Cc3ccc(Cl)cc3)c2)cc1` [2-44, 2-(4-(1-(4-Chlorobenzyl)-1,6-dihydro-6-oxopyridin-3-yl)phenyl)-N-methylacetamide], the melting point was 183 °C.
Compound `CN(C)C(=O)Cc1ccc(-c2ccc(=O)n(Cc3ccc(Cl)cc3)c2)cc1` [2-45] has a melting point of 161 °C.
In the case of `CNC(=O)CCc1ccc(-c2ccc(=O)n(Cc3ccc(Cl)cc3)c2)cc1` [2-46], the melting point is reported as 197 °C.
`CN(C)C(=O)CCc1ccc(-c2ccc(=O)n(Cc3ccc(Cl)cc3)c2)cc1` [2-47] showed a melting point of 104 °C.
Work on `CN(C)c1ccc(-c2ccc(=O)n(Cc3ccc(Cl)cc3)c2)cc1` [2-48] yielded a melting point of 155 °C.
With `O=c1ccc(-c2ccc(Cc3nn[nH]n3)cc2)cn1Cc1ccc(Cl)cc1` [2-51, 5-(4-((2H-Tetrazol-5-yl)methyl)phenyl)-1-(4-chlorobenzyl)pyridin-2(1H)-one] the melting point was 231 °C.
Compound `CSc1ccc(-c2ccc(=O)n(Cc3ccc(Cl)cc3)c2)cc1` [2-52] has a melting point of 132 °C.
With `CCSc1ccc(-c2ccc(=O)n(Cc3ccc(Cl)cc3)c2)cc1` [2-53] the melting point was 109 °C.
Compound `CS(=O)(=O)c1ccc(-c2ccc(=O)n(Cc3ccc(Cl)cc3)c2)cc1` [2-54] has a melting point of 199 to 200 °C.
Work on `COc1ccc(-c2ccc(=O)n(Cc3ccc(Cl)cc3)c2)cc1NS(C)(=O)=O` [2-56, N-(5-(1-(4-Chlorobenzyl)-6-oxo-1,6-dihydropyridin-3-yl)-2-methoxyphenyl)methanesulfonamide] yielded a melting point of 151 °C.
Work on `O=c1ccc(-c2cnn(Cc3ccccc3)c2)cn1Cc1ccc(Cl)cc1` [2-58] yielded a melting point of 140 to 144 °C.
Work on `O=c1ccc(-c2ccoc2)cn1Cc1ccc(Cl)cc1` [2-59] yielded a melting point of 112 to 114 °C.
In the case of `Cc1ccc(-c2ccc(=O)n(Cc3ccc(Cl)cc3)c2)s1` [2-60], the melting point is reported as 101 °C.
`COc1ccc(-c2ccc(=O)n(Cc3ccc(Cl)cc3)c2)cn1` [2-62] showed a melting point of 191 °C.
In the case of `O=c1ccc(-c2ccc(Cl)nc2)cn1Cc1ccc(Cl)cc1` [2-63], the melting point is reported as 169 °C.
With `CN(C)c1ccc(-c2ccc(=O)n(Cc3ccc(Cl)cc3)c2)cn1` [2-64] the melting point was 164 °C.
With `O=c1ccc(-c2ccc(N3CCOCC3)nc2)cn1Cc1ccc(Cl)cc1` [2-65] the melting point was 154 °C.
`COc1ncc(-c2ccc(=O)n(Cc3ccc(Cl)cc3)c2)cn1` [2-66] gave a melting point of 191 °C.
In the case of `Cn1ccc2cc(-c3ccc(=O)n(Cc4ccc(Cl)cc4)c3)ccc21` [2-68], the melting point is reported as 144 to 147 °C.
Compound `O=c1ccc(-c2ccc3c(c2)CCO3)cn1Cc1ccc(Cl)cc1` [2-69] has a melting point of 119 °C.
`O=c1ccc(-c2cnc3ccccc3c2)cn1Cc1ccc(Cl)cc1` [2-70] gave a melting point of 165 °C.
In the case of `O=c1ccc(-c2ccc3cccnc3c2)cn1Cc1ccc(Cl)cc1` [2-71], the melting point is reported as 261 °C.
Work on `O=c1ccc(-c2ccc3nccnc3c2)cn1Cc1ccc(Cl)cc1` [2-72] yielded a melting point of 120 °C.
`CN(Cc1ccc(=O)n(Cc2ccc(Cl)cc2)c1)c1ccccc1` [3-07, 1-(4-Chlorobenzyl)-5-((methyl(phenyl)amino)methyl)pyridin-1-2(1H)-one] gave a melting point of 106 °C.
`COc1cccc(C(O)c2ccc(=O)n(Cc3ccc(Cl)cc3)c2)c1` (centres unmarked) [3-10, 1-(4-Chlorobenzyl)-5-(hydroxy(3-methoxyphenyl)methyl)pyridin-2(1H)-one] showed a melting point of 120 °C.
For `COc1cccc(C(=O)c2ccc(=O)n(Cc3ccc(Cl)cc3)c2)c1` [3-12, 1-(4-Chlorobenzyl)-5-(3-methoxybenzoyl)pyridin-2(1H)-one], the melting point was 104 °C.
In the case of `COc1ccc(-c2ccc(=O)n(Cc3ccccc3C)c2)cc1` [4-05], the melting point is reported as 122 °C.
With `COc1ccc(-c2ccc(=O)n(Cc3ccc(C)cc3)c2)cc1` [4-06] the melting point was 123 to 124 °C.
For `COc1ccc(-c2ccc(=O)n(Cc3ccc(C(F)(F)F)cc3)c2)cc1` [4-07], the melting point was 131 to 132 °C.
`COc1ccc(-c2ccc(=O)n(Cc3cccc(F)c3)c2)cc1` [4-09] gave a melting point of 89 °C.
In the case of `COc1ccc(-c2ccc(=O)n(Cc3ccc(F)cc3)c2)cc1` [4-10], the melting point is reported as 103 °C.
`COc1ccc(-c2ccc(=O)n(Cc3ccc(F)cc3F)c2)cc1` [4-12] gave a melting point of 109 °C.
With `COc1ccc(-c2ccc(=O)n(Cc3cccc(F)c3F)c2)cc1` [4-13] the melting point was 71 °C.
Work on `COc1ccc(-c2ccc(=O)n(Cc3c(F)cc(F)cc3F)c2)cc1` [4-17] yielded a melting point of 112 °C.
Work on `COc1ccc(-c2ccc(=O)n(Cc3ccccc3Cl)c2)cc1` [4-18] yielded a melting point of 125 °C.
`COc1ccc(Cn2cc(-c3ccc(OC)cc3)ccc2=O)cc1` [4-23] showed a melting point of 103 °C.
